We go through four compounds from publication PMC4871480, “A Miniaturized Screen of a Schistosoma mansoni Serotonergic G Protein-Coupled Receptor Identifies Novel Classes of Parasite-Selective Inhibitors” (PLoS Pathogens, 2016).

“Also recorded” adds a separate entry of the source. Like-named read-outs stand apart in the source and are kept apart here. Bounds are passed on as bounds.

One assay has as its system regenerating planarians. Also on record: method as in PMID 24586156. The conditions noted are these: cited from earlier work.
The target in assay [1] is T1, Sm.5HTR (Schistosoma mansoni, UniProt G4V5G4). Kind of assay: Antagonist washout (inactivating antagonist) GloSensor assay on suspension cells. Format: cell-based. The method, then:
To test putative irreversible antagonists, assays on suspension cells were performed one day post transfection. […] Compounds were added at 10 μM, and after 30 minute incubation at room temperature cells were centrifuged (300 RCF, 5 minutes) and resuspended in fresh media. This wash step was repeated, and cells were resuspended in HBSS supplemented with 0.1% BSA, 20mM HEPES and GloSensor reagent. Cells were gently rotated to prevent aggregation and settling over the course of the two hour equilibration period, after which time they were transferred to 96 well plates at a density of 8 x 10^4 cells / 100μL per well and assays described for adherent cells.

A further assay deals with adult schistosomes. Nature of the assay: Adult schistosome mobility assay. The format is in vivo, Schistosoma mansoni. The conditions noted are these: 10μM; for effect on 5-HT evoked increases in worm movement / time to recovery of movement after drug removal, male worms: 5-HT 100μM; for time to recovery of movement after drug removal, male worms: 2 hour exposure; for effect on basal movement of adult worms: worms at rest. The method, then: Female Swiss Webster mice exposed to Schistosoma mansoni cerceria (Strain PR-1) at 5–7 weeks old were obtained from BEI Resources (Cat. number NR-34792) and sacrificed 6–8 weeks post-infection. Mature S. mansoni were harvested from the mesenteric vasculature by portal perfusion. Briefly, mice were anesthetized in a CO2 chamber and sacrificed by cervical dislocation. Mice were perfused with sodium citrate (25mM) and adult schistosomes were harvested from the mesenteric veins. Schistosomes were washed in RPMI media containing penicillin (1000 units/mL), streptomycin (1000 μg/mL) and 25mM HEPES, then transferred to RPMI media supplemented with 2mM glutamine and 5% heat inactivated FBS. Worms were incubated overnight at 37°C, 5% CO2 before conducting assays. Recordings of adult schistosome movement were captured using a Zeiss Discovery v20 stereomicroscope and a QiCAM 12-bit cooled color CCD camera. Videos were acquired at a rate of four frames per second for one minute. Recordings of female worms were acquired at 7.6x magnification, 30 mm field of view and recordings of male worms were acquired at a 5.1x magnification, 45 mm field of view. Analysis was performed in ImageJ as described previously. Briefly, image (.tiff) stacks of each recording were imported and processed by converting to binary format so that pixel measurements represent area of the worms’ bodies. Mobility was quantified by measuring the difference in pixels resulting from subtracting the value of one frame (n) from those of the next frame in the sequence (n+1). This difference was expressed as a percentage of the pixels in the initial frame (n), providing a measurement of the worms’ movement over a period of 0.25 seconds. This calculation was performed for each frame in the video, and the results were averaged over the length of the recording. Values reported represent the mean (±) standard error of at least three independent experiments. Animal work was carried out with the oversight and approval of the Laboratory Animal Resources facility at the Iowa State University College of Veterinary Medicine.

Assay [2] addresses T1, Sm.5HTR. Nature of the assay: cell-based. The format is cell-based. The conditions noted are these: for potency (IC50) at Sm.5HTR: Fig 7 quadrant. The method, then: (§1) HEK293 cells (ATCC CRL-1573.3) were cultured in DMEM supplemented with 10% fetal bovine serum (FBS), penicillin (100 units/ml), streptomycin (100 μg/ml), and L-glutamine (290 μg/ml). Cells were transiently transfected (ViaFect, Promega) as per the manufacturer’s protocol at a density of 2x10^6 cells per T-25 cell-culture flask. Cells were transfected with plasmids encoding GloSensor (Promega) and either Sm.5HTR (Smp_126730, GenBank accession number KF444051.1) or Sm.5HTRL (KX150867), bothGPCRs being codon optimized for mammalian expression, or Hs.5HT7a (GenBank accession number NM_000872.4, R&D Systems) subcloned into pCS2(-). Cell culture reagents were from Invitrogen. Epitope tagged constructs were used to verify expression, and untagged constructs used for all luminescence assays.
(§2) For assays performed on adherent cells, HEK-293 cells were transferred one day post transfection to 96 well, solid white plates (Corning, cat # 3917) coated with 0.01% poly-L-lysine (Sigma Aldrich) at a density of 5 x 10^4 cells / well in DMEM supplemented with 1% dialyzed FBS (Gibco). After overnight culture (37°C/5% CO2), media was decanted and replaced with 100μL / well HBSS supplemented with 0.1% BSA, 20mM HEPES (pH 7.4) and GloSensor reagent. Plates were allowed to equilibrate at room temperature for two hours prior to performing luminescence assays (GloMax-Multi Detection System plate reader, Promega). Conditions for individual assays were described as per figure legends. The standard assay to detect changes in cAMP utilized the F22 sensor in media supplemented with IBMX (200μM). Ligands were added at a concentration of 20x per well for experiments (i.e. 5μl of drug solution added to 100μl of cells). […] For the resazurin reduction assay for cellular viability, cells were incubated with resazurin (final concentration, 10μM) and tested ligands with fluorescence measurements (560 nm excitation/590 nm emission) made at 1.5hr intervals.

The next assay deals with T2, Hs.5HT7R (Homo sapiens, UniProt P34969).
T2 construct: host or cells: HEK293 (ATCC CRL-1573.3), transient transfection, pCS2(-) vector
T2 sequence (P34969 1-445 isoform P34969-2): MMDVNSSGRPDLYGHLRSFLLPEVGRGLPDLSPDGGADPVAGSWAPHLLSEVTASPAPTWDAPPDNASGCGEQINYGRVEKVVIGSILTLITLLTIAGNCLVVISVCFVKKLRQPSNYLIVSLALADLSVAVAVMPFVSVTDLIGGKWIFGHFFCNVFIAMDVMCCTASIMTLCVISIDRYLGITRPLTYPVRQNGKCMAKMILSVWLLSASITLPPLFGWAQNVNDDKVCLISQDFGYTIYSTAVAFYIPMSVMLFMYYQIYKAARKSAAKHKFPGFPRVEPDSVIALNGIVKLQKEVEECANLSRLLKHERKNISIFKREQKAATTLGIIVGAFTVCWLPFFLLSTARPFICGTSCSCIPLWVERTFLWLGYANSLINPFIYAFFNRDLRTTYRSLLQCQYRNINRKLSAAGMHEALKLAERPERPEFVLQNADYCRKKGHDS
Kind of assay: GloSensor cAMP assay in HEK293 cells expressing Hs.5HT7R. The format is cell-based. The following applies: for potency (IC50) at Hs.5HT7R: Fig 7 quadrant. The method, then:
as §1, §2

Assay [3] has as its system S. mansoni schistosomules. Nature of the assay: Schistosomule contractility assay. Format: in vivo, Schistosoma mansoni. The conditions noted are these: Schistosoma mansoni; for IC50: read-out: IC50 (inhibition of 5-HT evoked contractions). Here is the method: Biomphalaria glabrata (M-line) snails exposed to Schistosoma mansoni miracidia (Strain PR-1) were obtained from BEI Resources (Cat. number NR-21961) and cercaria were shed following exposure to light (1.5 hours). Cercaria were manually transformed into schistosomula by vortexing (3 x 45 seconds, each separated by 3 minutes on ice) and tails were removed by gradient centrifugation (24ml Percoll, 4ml 10X EMEM, 1.5ml penicillin-streptomycin, 1ml of 1M HEPES in 0.85% NaCl, 9.5ml distilled water) at 500g/15min at 4°C. Supernatant containing tails was discarded, and schistosomules were resuspended in Basch media and incubated (37°C, 5% CO2) overnight before conducting mobility assays. For contractility experiments, somules were incubated in 5-HT free Basch media to resolve a basal contractility rate. […] Schistosomules were incubated in 24 well plates (~200 schistosomules / 0.5mL media per well) for 30 minutes (37°C/5% CO2) prior to acquiring videos of schistosome movement (1 minute recordings / well) using a Nikon Coolpix 5700 camera affixed to a Nikon Eclipse TS100 microscope (10x objective). The WrmTrck plugin for ImageJ was used to quantify worm mobility. Briefly, the major axis of each schistosomule body length was extracted from the raw output of WrmTrck and an average length was determined for the duration of the recording. Contractions were quantified by determining the number of episodes during which the worm body length deviated from the average by over 20%. S. mansoni protocols were approved by the Iowa State University Institutional Biosafety Committee.

For a further assay, the target named is Sm.5HTRL (Schistosoma mansoni, UniProt A0A173FEI8). Kind of assay: GloSensor cAMP assay in HEK293 cells expressing Sm.5HTRL. The format is cell-based. The conditions noted are these: antagonists 10μM, 5-HT EC80 dose. Here is the method: as §1, §2
Sequence of Sm.5HTRL (A0A173FEI8 entry or part of it): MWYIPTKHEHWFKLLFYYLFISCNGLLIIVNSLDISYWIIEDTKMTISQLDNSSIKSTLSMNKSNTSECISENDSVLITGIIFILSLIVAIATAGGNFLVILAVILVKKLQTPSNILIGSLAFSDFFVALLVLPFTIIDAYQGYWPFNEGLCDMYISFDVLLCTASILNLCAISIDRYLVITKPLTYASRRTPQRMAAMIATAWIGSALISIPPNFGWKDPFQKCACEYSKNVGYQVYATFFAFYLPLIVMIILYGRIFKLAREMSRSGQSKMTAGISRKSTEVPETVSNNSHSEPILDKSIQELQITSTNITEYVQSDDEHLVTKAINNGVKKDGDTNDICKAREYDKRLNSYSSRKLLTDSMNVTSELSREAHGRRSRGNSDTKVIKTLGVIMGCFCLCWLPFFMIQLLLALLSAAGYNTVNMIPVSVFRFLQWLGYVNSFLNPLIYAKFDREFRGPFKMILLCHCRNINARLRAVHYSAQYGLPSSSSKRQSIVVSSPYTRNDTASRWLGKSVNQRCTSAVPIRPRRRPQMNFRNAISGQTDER

T1 sequence (G4V5G4 entry or part of it): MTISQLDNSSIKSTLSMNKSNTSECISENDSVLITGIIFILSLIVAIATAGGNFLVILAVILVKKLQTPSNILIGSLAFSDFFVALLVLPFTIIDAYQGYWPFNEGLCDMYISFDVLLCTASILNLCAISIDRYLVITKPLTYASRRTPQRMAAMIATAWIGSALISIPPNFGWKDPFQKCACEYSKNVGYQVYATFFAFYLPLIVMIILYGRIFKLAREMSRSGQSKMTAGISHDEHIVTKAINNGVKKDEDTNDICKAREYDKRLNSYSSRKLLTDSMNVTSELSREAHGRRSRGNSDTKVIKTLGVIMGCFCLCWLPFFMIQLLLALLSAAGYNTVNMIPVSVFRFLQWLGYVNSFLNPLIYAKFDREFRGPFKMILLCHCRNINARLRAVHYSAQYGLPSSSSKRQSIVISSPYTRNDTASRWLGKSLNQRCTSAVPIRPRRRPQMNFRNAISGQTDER

Turning to `CC(C)C[C@H]1C(=O)N2CCC[C@H]2[C@]2(O)O[C@](NC(=O)[C@@H]3C=C4c5cccc6[nH]c(Br)c(c56)C[C@H]4N(C)C3)(C(C)C)C(=O)N12` [bromocriptine], the “concentration evoking bipolarity, fold less than PZQ” value in the assay with regenerating planarians was 100 fold. Moreover, at Sm.5HTR [1] (10μM for 30 mins, washout, 5-HT response 1hr later), the “inhibition of Sm.5HTR after antagonist wash-out” value is recorded as “long-lasting inhibition”. Also, the “potency for Sm.5HTR inhibition after washout” value at Sm.5HTR [1] (titration, Fig 6E) is reported as “most potent”. In addition, in the assay on adult schistosomes, the “effect on 5-HT evoked increases in worm movement” value (“effect on 5-HT evoked increases” below) was “inhibited”; the “time to recovery of movement after drug removal, male worms” value worked out at 24 h; the “effect on basal movement of adult worms” value is “markedly inhibited worm movements at rest”. In addition, the “ligand type at Sm.5HTR” value at Sm.5HTR [2] (Fig 5F) is “Antagonist”. The “potency (IC50) at Sm.5HTR” value at Sm.5HTR [2] is reported as “sub-μM potency”. For the same compound, the Kb at Sm.5HTR [2] (KB (affinity constant, Schild regression), right-shift of 5-HT dose-response) was found to be 410 nM. At Sm.5HTR [2] (Sm.5HTR over Hs.5HT7R), the “selectivity for the parasitic 5-HT receptor” value is listed as ~ 10 fold. For the same compound, on Sm.5HTR [2] (at higher concentrations (>10μM)), the “inhibition of 5-HT evoked cAMP generation” value was “almost complete inhibition”. The “agonist efficacy at Sm.5HTR” value on Sm.5HTR [2] (dose response, Fig 5A) is given as “no efficacy”. Also, the “acute inhibition of 5-HT (10μM) response at Sm.5HTR” value at Sm.5HTR [2] (drug 10μM, preincubation) was “acutely inhibited”. Besides, at Sm.5HTR [2] (pKB ± S.E.M, Schild regression), the Kb was 407 nM. The “potency (IC50) at Hs.5HT7R” value at Hs.5HT7R was “supra-μM potency”. The IC50 in assay [3] was not above 1000 nM.
With `COc1cc2c(cc1OC)[C@@H]1Cc3ccc(OC)c(OC)c3CN1CC2` [rotundine], in the assay with adult schistosomes, the “effect on 5-HT evoked increases” value is reported as “inhibited”; the “time to recovery of movement after drug removal, male worms” value was not above 3 h; the “effect on basal movement of adult worms” value is on record as “markedly inhibited worm movements at rest”. Further, on Sm.5HTR [2], the IC50 turned out to be 701 ± 207 nM, the “selectivity for Sm.5HTR over Hs.5HT7R” value is given as “clear selectivity for Sm.5HTR; also recorded: clear bias toward Sm.5HTR” and the “potency (IC50) at Sm.5HTR” value was “sub-μM potency”. For the same compound, the IC50 on Sm.5HTR [2] (IC50 (antagonism of 5-HT evoked cAMP generation), 5-HT at EC80) is approximately 700 nM. On Sm.5HTRL, the “inhibition of 5-HT evoked cAMP generation through Sm.5HTRL” value is “inhibited 5-HT evoked cAMP generation”. The “potency (IC50) at Hs.5HT7R” value on Hs.5HT7R is recorded as “supra-μM potency”. Moreover, the “effect on Hs.5HT7” value at Hs.5HT7R (concentrations up to 50μM) was “lacking any effect”. Also, the IC50 in assay [3] is not above 1000 nM.
For the compound `COc1cc2c(cc1OC)C1CC(=O)C(CC(C)C)CN1CC2` (stereo not drawn) [tetrabenazine], the “potency (IC50) at Sm.5HTR” value at Sm.5HTR [2] is recorded as “sub-μM potency”. Besides, the “GPCR inhibition profile compared with rotundine” value at Sm.5HTR [2] (Sm.5HTR vs Hs.5HT7R, Fig F in S1 Text) is “selectivity for Sm.5HTR retained”. The “potency (IC50) at Hs.5HT7R” value on Hs.5HT7R is listed as “supra-μM potency”. In addition, the inhibition at 100 µM in assay [3] (read-out: inhibition of 5-HT evoked contractility) is approximately 50%.
Turning to `COc1ccc2cc1Oc1ccc(cc1)C[C@H]1c3cc(c(OC)cc3CCN1C)Oc1c(OC)c(OC)cc3c1[C@H](C2)N(C)CC3` [tetrandrine], in the assay on adult schistosomes, the “effect on 5-HT evoked increases” value is given as “lacked an inhibitory effect” and the “effect on basal movement of adult worms” value is recorded as “enhanced movements of isolated female worms”. In addition, at Sm.5HTR [2], the “potency (IC50) at Sm.5HTR” value is on record as “sub-μM potency”. In addition, the “potency (IC50) at Hs.5HT7R” value at Hs.5HT7R is “supra-μM potency”. Also, the IC50 in assay [3] is not above 1000 nM.
